# Laboratory results as given in patent US8106204B2, “Substituted 2-amino-4-phenyldihydroquinolines, processes for their preparation, pharmaceutical compositions and methods for their use” (Sanofi-Aventis, priority 2006, dated 2012).
# pIC50: −log10 of the molar value. Structures can show the parent of a compound that is named as a salt.
# Biological target: T1, NHE-3 (Homo sapiens, UniProt P48764)
# T1 sequence (P48764 26-834): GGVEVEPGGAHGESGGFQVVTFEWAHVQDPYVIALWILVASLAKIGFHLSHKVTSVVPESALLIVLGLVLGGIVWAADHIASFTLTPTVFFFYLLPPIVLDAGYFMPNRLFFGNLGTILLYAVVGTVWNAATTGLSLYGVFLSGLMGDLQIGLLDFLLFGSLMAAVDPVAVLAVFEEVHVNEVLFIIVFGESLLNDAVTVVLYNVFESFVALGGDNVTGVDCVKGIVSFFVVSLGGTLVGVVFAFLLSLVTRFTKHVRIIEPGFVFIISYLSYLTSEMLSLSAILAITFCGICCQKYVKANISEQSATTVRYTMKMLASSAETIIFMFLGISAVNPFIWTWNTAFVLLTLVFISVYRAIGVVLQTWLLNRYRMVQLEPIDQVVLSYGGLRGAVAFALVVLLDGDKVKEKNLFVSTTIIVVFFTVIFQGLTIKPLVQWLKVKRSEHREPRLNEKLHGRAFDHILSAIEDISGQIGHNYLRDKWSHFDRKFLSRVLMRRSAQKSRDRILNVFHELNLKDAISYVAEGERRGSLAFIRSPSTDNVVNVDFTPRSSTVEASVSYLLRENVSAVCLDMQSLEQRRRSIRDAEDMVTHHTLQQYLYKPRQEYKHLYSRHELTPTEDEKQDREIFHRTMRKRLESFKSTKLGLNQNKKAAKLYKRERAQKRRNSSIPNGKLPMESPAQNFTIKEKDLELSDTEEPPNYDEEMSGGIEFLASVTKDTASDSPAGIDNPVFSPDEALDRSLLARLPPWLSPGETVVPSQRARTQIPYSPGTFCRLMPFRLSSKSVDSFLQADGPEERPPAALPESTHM
# Test: Determination of the NHE-inhibitory effect (recovery of intracellular pH after acidification, BCECF fluorescence)
# Assay type: cell-based
# Settings: pH recovery recorded for three minutes with NHE-3; BCECF-loaded cells
# Description: Description of Assay: Determination of the NHE-Inhibitory Effect In this assay, the recovery of the intracellular pH (pHj) after an acidification which occurs even under bicarbonate-free conditions with functional NHE was determined. To this end, the pHj was determined using the pH-sensitive fluorescent dye BCECF (Calbiochem, the precursor BCECF-AM was employed). The cells were initially loaded with BCECF. The BCECF fluorescence was determined in a ratio fluorescence spectrometer (Photon Technology International, South Brunswick, N.J., USA) with excitation wavelengths of 505 and 440 nm and an emission wavelength of 535 nm and converted into the pHj using calibration plots. The cells had been incubated in NH4Cl buffer (pH 7.4) for the BCECF loading (NH4Cl buffer: 115 mM NaCl, 20 mM NH4Cl, 5 mM KCl, 1 mM CaCl2, 1 mM MgSO4, 20 mM Hepes, 5 mM glucose, 1 mg/ml BSA; a pH of 7.4 was adjusted with 1 M NaOH). The intracellular acidification was induced by adding 975 μl of an NH4Cl-free buffer (see below) to 25 μl aliquots of the cells incubated in NH4Cl buffer. The subsequent rate of pH recovery was recorded for two minutes with NHE1, five minutes with NHE2 and three minutes with NHE-3. To calculate the inhibitory power of the tested substances, the cells were initially investigated in buffers with which there was complete or absolutely no pH recovery. For complete pH recovery (100%), the cells were incubated in Na^+-containing buffer (133.8 mM NaCl, 4.7 mM KCl, 1.25 mM CaCl2, 1.25 mM MgCl2, 0.97 mM Na2HPO4, 0.23 mM NaH2PO4, 5 mM Hepes, 5 mM glucose, a pH of 7.0 was adjusted with 1 M NaOH). To determine the 0% value, the cells were incubated in an Na^+-free buffer (133.8 mM choline chloride, 4.7 mM KCl, 1.25 mM CaCl2, 1.25 mM MgCl2, 0.97 mM K2HPO4, 0.23 mM KH2PO4, 5 mM Hepes, 5 mM glucose, a pH of 7.0 was adjusted with 1 M NaOH). The substances to be tested were made up in the Na^+-containing buffer. The recovery of the intracellular pH at each tested concentration of a substance was expressed as a percentage of the maximum recovery. The IC50 of the respective substance for the individual NHE subtypes was calculated from the percentages of pH recovery using the Sigma Plot program.
row,pIC50,Structure (SMILES)
1,5.36,"NC1=Nc2ccc(Cl)cc2C(c2ccc(N)cc2)C1 (stereo not shown) [Example 1, 2-Amino-4-(4-aminophenyl)-6-chloro-3,4-dihydroquinoline hydrochloride]"
2,4.96,"CCNC1=Nc2ccc(Cl)cc2C(c2ccc(N)cc2)C1 (stereo not shown) [Example 2, 4-(4-Aminophenyl)-6-chloro-2-ethylamino-3,4-dihydroquinoline hydrochloride]"
3,5.04,"CCN(CC)C1=Nc2ccc(Cl)cc2C(c2ccc(N)cc2)C1 (stereo not shown) [Example 3, 4-(4-Aminophenyl)-6-chloro-2-diethylamino-3,4-dihydroquinoline hydrochloride]"
4,4.86,"CCN(CC)C1=Nc2ccc(Cl)cc2C(c2ccc(NC(=O)NCCN(C)C)cc2)C1 (stereo not shown) [Example 4, N-(2-Dimethylaminoethyl)-N′-4-[(6-chloro-3,4-dihydro-2-diethyl-aminoquinolin-4-yl)phenyl]urea hydrochloride]"
